Experimental data reported in PubChem BioAssay AID206 (DTP/NCI, 2004).
Several values for one entry are separate records, joined by “and”; a condition that tells them apart may be missing. Equal entries are not always repeated. Results filed as inconclusive are left out.

Tested on: nude mice, HT29 intrarenal xenograft, tumor weight T/C
Assay: NCI In Vivo Anticancer Drug Screen. Data for tumor model HT29;CX-1 Human Adenocarcinoma (MER+) (intrarenal inoculation) in NU/NU Swiss (nude) mice
Conditions: endpoint: mean tumor weight change, higher = larger tumour
In short: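 T/C = treated-group value ÷ vehicle-group value, using tumor size or survival.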

[1] = dose: 100.0 mg/kg/injection, schedule: Q04DX004 (sc), vehicle: suspension in saline
[2] = dose: 200.0 mg/kg/injection, schedule: Q04DX004 (sc), vehicle: suspension in saline
[3] = dose: 1.0 mg/kg/injection, schedule: Q01DX010 (sc), vehicle: water
[4] = dose: 2.0 mg/kg/injection, schedule: Q01DX010 (sc), vehicle: water
[5] = dose: 37.5 mg/kg/injection, schedule: Q04DX004 (sc), vehicle: saline with Tween-80
[6] = dose: 75.0 mg/kg/injection, schedule: Q04DX004 (sc), vehicle: saline with Tween-80
[7] = dose: 150.0 mg/kg/injection, schedule: Q04DX004 (sc), vehicle: saline with Tween-80
[8] = dose: 300.0 mg/kg/injection, schedule: Q04DX004 (sc), vehicle: saline with Tween-80
[9] = dose: 600.0 mg/kg/injection, schedule: Q04DX004 (sc), vehicle: saline with Tween-80
[10] = dose: 1200.0 mg/kg/injection, schedule: Q04DX004 (sc), vehicle: saline with Tween-80
[11] = dose: 2400.0 mg/kg/injection, schedule: Q04DX004 (sc), vehicle: saline with Tween-80
[12] = dose: 150.0 mg/kg/injection, schedule: Q04DX004 (sc), vehicle: Klucel (hydroxypropylcellulose) (HPC)
[13] = dose: 300.0 mg/kg/injection, schedule: Q04DX004 (sc), vehicle: Klucel (hydroxypropylcellulose) (HPC)
[14] = dose: 600.0 mg/kg/injection, schedule: Q04DX004 (sc), vehicle: Klucel (hydroxypropylcellulose) (HPC)
[15] = dose: 1200.0 mg/kg/injection, schedule: Q04DX004 (sc), vehicle: Klucel (hydroxypropylcellulose) (HPC)

## CCOC(C)C(/C=N/NC(N)=S)=NNC(N)=S (stereo unspecified)
dose: 100.0 mg/kg/injection, schedule: Q01DX010 (sc), vehicle: saline with Tween-80
  T/C: 76 % of control
dose: 200.0 mg/kg/injection, schedule: Q01DX010 (sc), vehicle: saline with Tween-80
  T/C: 49 % of control
dose: 400.0 mg/kg/injection, schedule: Q01DX010 (sc), vehicle: saline with Tween-80
  T/C: 68 % of control

## N=C(N)SCc1c2ccccc2c(CSC(=N)N)c2ccccc12
dose: 25.0 mg/kg/injection, schedule: Q04DX004 (sc), vehicle: suspension in saline
  T/C: 69 % of control
dose: 50.0 mg/kg/injection, schedule: Q04DX004 (sc), vehicle: suspension in saline
  T/C: 72 % of control
[1]
  T/C: 52 % of control
[2]
  T/C: 75 % of control

## COc1cccc2c1C(=O)c1c(O)c3c(c(O)c1C2=O)C[C@@](O)(C(=O)CO)C[C@@H]3OC1CC(N(C)C)C(O)C(C)O1 (stereo partly specified)
[3]
  T/C: 19 % of control
[4]
  T/C: 94 % of control
dose: 4.0 mg/kg/injection, schedule: Q01DX010 (sc), vehicle: water
  T/C: 29 % of control

## COc1ccc([I+]c2cccc(Cl)c2)cc1Cl
[5]
  T/C: 67 % of control
[6]
  T/C: 48 % of control
[7]
  T/C: 58 % of control
[8]
  T/C: 39 % of control
[9]
  T/C: 64 % of control

## CCCCCCCC(=O)[O][Hg][CH2]C1COC([CH2][Hg][O]C(=O)CCCCCCC)CO1 (stereo unspecified)
[5]
  T/C: 110 % of control
[6]
  T/C: 120 % of control
[7]
  T/C: 47 % of control
[8]
  T/C: 51 % of control

## CC(=O)Nc1cscc1NC(C)=O
[6]
  T/C: 84 % of control
[7]
  T/C: 81 % of control
[8]
  T/C: 155 % of control
[9]
  T/C: 155 % of control
[10]
  T/C: 82 % of control
[11]
  T/C: 118 % of control

## Cc1nn(CCO)c(C)c1N=[N+]([O-])c1c(C)nn(CCO)c1C
dose: 75.0 mg/kg/injection, schedule: Q04DX004 (sc), vehicle: Klucel (hydroxypropylcellulose) (HPC)
  T/C: 68 % of control
[12]
  T/C: 70 % of control
[13]
  T/C: 44 % of control
[14]
  T/C: 53 % of control
[15]
  T/C: 102 % of control

## Oc1cc2ccccc2c(-c2c(O)c(O)cc3ccccc23)c1O
dose: 225.0 mg/kg/injection, schedule: Q04DX004 (sc), vehicle: saline with Tween-80
  T/C: 101 % of control
dose: 450.0 mg/kg/injection, schedule: Q04DX004 (sc), vehicle: saline with Tween-80
  T/C: 55 % of control
dose: 900.0 mg/kg/injection, schedule: Q04DX004 (sc), vehicle: saline with Tween-80
  T/C: 86 % of control
[10]
  T/C: 120 % of control
dose: 1800.0 mg/kg/injection, schedule: Q04DX004 (sc), vehicle: saline with Tween-80
  T/C: 28 % of control
[11]
  T/C: 94 % of control

## Cc1ccc2nc(-c3ccc4nc(-c5ccc(N=Nc6ccc(-c7nc8ccc(-c9nc%10ccc(C)c(S(=O)(=O)O)c%10s9)cc8s7)cc6)cc5)sc4c3)sc2c1S(=O)(=O)O
[2]
  T/C: 190 % of control
dose: 400.0 mg/kg/injection, schedule: Q04DX004 (sc), vehicle: suspension in saline
  T/C: 109 % of control
dose: 800.0 mg/kg/injection, schedule: Q04DX004 (sc), vehicle: suspension in saline
  T/C: 221 % of control
dose: 1600.0 mg/kg/injection, schedule: Q04DX004 (sc), vehicle: suspension in saline
  T/C: 50 % of control

## CCOC(=O)CNC(=O)Sc1ccc(C(C)(C)C)cc1
dose: 300.0 mg/kg/injection, schedule: Q04DX003 (sc), vehicle: Klucel (hydroxypropylcellulose) (HPC)
  T/C: 98 % of control
dose: 600.0 mg/kg/injection, schedule: Q04DX003 (sc), vehicle: Klucel (hydroxypropylcellulose) (HPC)
  T/C: 113 % of control
dose: 1200.0 mg/kg/injection, schedule: Q04DX003 (sc), vehicle: Klucel (hydroxypropylcellulose) (HPC)
  T/C: 44 % of control
dose: 2400.0 mg/kg/injection, schedule: Q04DX003 (sc), vehicle: Klucel (hydroxypropylcellulose) (HPC)
  T/C: 103 % of control

## O=CC(=O)c1ccc(O)cc1
dose: 150.0 mg/kg/injection, schedule: Q04DX004 (sc), vehicle: saline
  T/C: 73 % of control
dose: 300.0 mg/kg/injection, schedule: Q04DX004 (sc), vehicle: saline
  T/C: 67 % of control
dose: 600.0 mg/kg/injection, schedule: Q04DX004 (sc), vehicle: saline
  T/C: 56 % of control

## COC1C(/C=C/C(C)=O)OC2OC(C)(C)OC21 (stereo unspecified)
dose: 75.0 mg/kg/injection, schedule: Q04DX004 (sc), vehicle: suspension in saline
  T/C: 74 % of control
dose: 150.0 mg/kg/injection, schedule: Q04DX004 (sc), vehicle: suspension in saline
  T/C: 106 % of control
dose: 300.0 mg/kg/injection, schedule: Q04DX004 (sc), vehicle: suspension in saline
  T/C: 54 % of control
dose: 600.0 mg/kg/injection, schedule: Q04DX004 (sc), vehicle: suspension in saline
  T/C: 20 % of control

## Cn1c(=O)[nH]c2nncnc2c1=O
dose: 15.0 mg/kg/injection, schedule: Q04DX004 (sc), vehicle: water
  T/C: 79 % of control and 101 % of control
dose: 60.0 mg/kg/injection, schedule: Q04DX004 (sc), vehicle: water
  T/C: 78 % of control and 86 % of control
dose: 120.0 mg/kg/injection, schedule: Q04DX004 (sc), vehicle: water
  T/C: 19 % of control

## COc1ccc2ccccc2c1C1NC(=O)c2ccccc2N1 (stereo unspecified)
[12]
  T/C: 114 % of control
[13]
  T/C: 115 % of control
[14]
  T/C: 207 % of control
[15]
  T/C: 201 % of control

## OC1(CSc2ccccc2)CCCCC1
dose: 100.0 mg/kg/injection, schedule: Q04DX004 (sc), vehicle: saline with Tween-80
  T/C: 113 % of control

## Nc1n[nH]c(N)n1
dose: 200.0 mg/kg/injection, schedule: Q01DX010 (sc), vehicle: saline
  T/C: 295 % of control
dose: 400.0 mg/kg/injection, schedule: Q01DX010 (sc), vehicle: saline
  T/C: 157 % of control
dose: 800.0 mg/kg/injection, schedule: Q01DX010 (sc), vehicle: saline
  T/C: 215 % of control

## CCOC(OCC)C(=O)OCC(=O)[C@]1(O)Cc2c(O)c3c(c(O)c2[C@@H](OC2CC(N)C(O)C(C)O2)C1)C(=O)c1c(OC)cccc1C3=O (stereo partly specified)
dose: 20.0 mg/kg/injection, schedule: Q04DX004 (sc), vehicle: water
  T/C: 33 % of control

## CC[C@@]1(O)C[C@H](OC2CC(N(C)C)C(OC3CC(O)C(OC4CCC(=O)C(C)O4)C(C)O3)C(C)O2)c2c(cc3c(c2O)C(=O)c2c(O)cccc2C3=O)[C@H]1C(=O)OC (stereo partly specified)
dose: 0.5 mg/kg/injection, schedule: Q01DX010 (ip), vehicle: water
  T/C: 35 % of control
dose: 2.0 mg/kg/injection, schedule: Q04DX004 (ip), vehicle: water
  T/C: 114 % of control
dose: 4.0 mg/kg/injection, schedule: Q04DX004 (ip), vehicle: water
  T/C: 61 % of control
dose: 4.0 mg/kg/injection, schedule: Q04DX004 (sc), vehicle: water
  T/C: 25 % of control
dose: 8.0 mg/kg/injection, schedule: Q04DX004 (ip), vehicle: water
  T/C: 37 % of control
dose: 8.0 mg/kg/injection, schedule: Q04DX004 (sc), vehicle: water
  T/C: 4 % of control

## OCC1OC(n2cnc3c2NC=NC[C@H]3O)CC1O (stereo partly specified)
[3]
  T/C: 168 % of control
[4]
  T/C: 176 % of control

## O=[N+]([O-])O.[Ga]
dose: 50.0 mg/kg/injection, schedule: Q04DX004 (sc), vehicle: saline
  T/C: 99 % of control
dose: 100.0 mg/kg/injection, schedule: Q04DX004 (sc), vehicle: saline
  T/C: 66 % of control
dose: 200.0 mg/kg/injection, schedule: Q04DX004 (sc), vehicle: saline
  T/C: 80 % of control
dose: 400.0 mg/kg/injection, schedule: Q04DX004 (sc), vehicle: saline
  T/C: 103 % of control

## Cc1ccc(C2NC(=S)N3C(c4ccc(C)cc4)NC(=S)N23)cc1 (stereo unspecified)
[13]
  T/C: 75 % of control
[14]
  T/C: 80 % of control
[15]
  T/C: 69 % of control
dose: 2400.0 mg/kg/injection, schedule: Q04DX004 (sc), vehicle: Klucel (hydroxypropylcellulose) (HPC)
  T/C: 75 % of control

## C[C@H]1C[C@@H]2[C@H]([C@@H](O)C[C@@]3(C)[C@H]2CC[C@]3(O)C(=O)CO)[C@@]2(C)C=CC(=O)C=C12
dose: 200.0 mg/kg/injection, schedule: Q04DX004 (sc), vehicle: Klucel (hydroxypropylcellulose) (HPC)
  T/C: 69 % of control

## CN(N=O)C(N)=O
dose: 12.5 mg/kg/injection, schedule: Q01DX010 (sc), vehicle: saline with Tween-80
  T/C: 119 % of control
dose: 25.0 mg/kg/injection, schedule: Q01DX010 (sc), vehicle: saline with Tween-80
  T/C: 41 % of control
[1]
  T/C: 101 % of control

## CCOC(=O)C(C)(C)Oc1ccc(Cl)cc1
[8]
  T/C: 72 % of control
[9]
  T/C: 70 % of control
[10]
  T/C: 68 % of control
